Laboratory results reported in PubChem BioAssay (NCI).
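Step 1: Grow cells in 96-well plates. Step 2: Expose to compound for 48 hours at 5 concentrations. Step 3: Interpolate endpoints linearly; if unreached, use highest concentration. At the GI50, growth is halved. TGI denotes the concentration required for complete inhibition of growth.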

Tests used:
Assay in all cases: inhibition of tumour cell growth, NCI panel, 48 h
[1] = tested on: RPMI-8226 leukemia
[2] = tested on: OVCAR-3 ovarian
[3] = tested on: T-47D breast
[4] = tested on: CCRF-CEM leukemia
[5] = tested on: PC-3 prostate
[6] = tested on: NCI-H226 lung
[7] = tested on: NCI-H23 lung
[8] = tested on: OVCAR-5 ovarian
[9] = tested on: OVCAR-4 ovarian
[10] = tested on: M14 melanoma

SMILES | TGI [1] [µM] | TGI [2] [µM] | TGI [3] [µM] | TGI [4] [µM] | TGI [5] [µM] | TGI [6] [µM] | TGI [7] [µM] | TGI [8] [µM] | TGI [9] [µM] | TGI [10] [µM] | GI50 [1] [µM] | GI50 [3] [µM] | GI50 [4] [µM] | GI50 [5] [µM] | GI50 [7] [µM] | GI50 [8] [µM] | GI50 [9] [µM] | GI50 [10] [µM] | GI50 [2] [µM] | GI50 [6] [µM]
CSC(SC)(C(=O)O)c1cc(-c2c(Cl)cccc2Cl)no1 | 50.4 | > 100 | > 100 | > 100 | > 100 | > 100 | 79 | > 100 | > 100 | > 100 |  |  |  |  |  |  |  |  |  | 
CN(C)C/C=C/C(=O)Nc1ccc(C(=O)N[C@@]2(C)CCC[C@@H](Nc3ncc(Cl)c(-c4c[nH]c5ccccc45)n3)C2)nc1 | 0.0244 |  | 0.565 | 1.3 | 0.0833 |  | 0.0523 | 1.24 | 0.915 | 0.0282 | < 0.01 | 0.0218 | < 0.01 | < 0.01 | < 0.01 | 0.0213 | 0.0141 | < 0.01 |  | 
O=S(=O)(C1=CC(S(=O)(=O)c2ccccc2)CN(Cc2ccccc2)C1c1cccc2ccccc12)c1ccccc1 (configuration not stated) | > 69 | > 69 |  | > 69 |  | > 69 | > 69 | > 69 | > 69 | > 69 |  |  |  |  |  |  |  |  |  | 
C=C(C)[C@@H]1CC[C@]2(COCCCN)CC[C@]3(C)[C@H](CC[C@@H]4[C@@](C)(CCCNCCCN)[C@H](C(=C)C)CC[C@]43C)[C@@H]12 | 5.08 | 3.36 | 3.63 | 7.34 | 3.25 |  | 3.63 | 3.12 | 3.17 | 3.62 | 2.2 | 1.78 | 2.39 | 1.7 | 1.79 | 1.71 | 1.72 | 1.9 | 1.81 | 
Cc1ccc(S(=O)(=O)N/N=C2\CCCCC23CCC(=O)NC3)cc1 (configuration not stated) | > 100 | > 100 |  | > 100 |  | > 100 |  |  | > 100 | > 100 |  |  |  |  |  |  |  |  |  | 
O=C(Nc1ccc(C(F)(F)F)cc1[N+](=O)[O-])C(=O)C1NC(=S)NC1=O (configuration not stated) | > 100 | > 100 |  | > 100 |  | 24.1 | > 100 | > 100 | > 100 | > 100 |  |  |  |  |  |  |  |  |  | 
CCCOC(=O)N[C@H]1CCc2c(Cl)c(OC)c(OC)c(OC)c2-c2ccc(SC)c(=O)cc21 | 7.73 | < 0.01 |  | > 100 | > 100 | 12.5 | 32.5 | > 76.7 | > 100 | 4.47 | < 0.01 |  | < 0.01 | < 0.01 | < 0.01 | < 0.013 | < 0.012 | < 0.01 | < 0.01 | < 0.01
COc1ccc(NC(=O)CC/C(CC(=O)c2ccco2)=N/NC(=O)C(N)=O)cc1 | > 100 | > 100 |  | > 100 |  | > 100 | > 100 | > 100 | > 100 | > 100 |  |  |  |  |  |  |  |  |  | 
CCN1CCCc2cc3c(C(F)(F)F)cc(=O)oc3cc21 |  | > 100 | > 100 |  | 93.1 | > 100 | > 100 | > 100 | > 100 | > 100 |  |  |  |  |  |  |  |  |  | 
CC(=O)Oc1c(C)c(-c2ccccc2)c(C)c(-c2ccccc2)c1C(=S)c1ccccc1 | > 100 | > 100 |  | > 100 |  | > 100 | > 100 | > 100 |  | > 100 |  |  |  |  |  |  |  |  |  | 
COc1ccc([C@@]2(O)c3c(ccc(O)c3OC)[C@H]2OC)c(OC)c1 | > 100 | > 100 |  | > 100 |  | > 100 | > 100 | > 100 | > 100 | > 100 |  |  |  |  |  |  |  |  |  | 
C=C(C)C1CC2(C)C(C)CC(O)CC2C(OC(=O)C=C(C)C)C1O (configuration not stated) |  |  | > 100 | 84.7 | > 100 | 46.2 | > 100 | > 100 | > 100 | > 100 |  |  |  |  |  |  |  |  |  | 
CNC(=O)OCc1c(COC(=O)NC)c(-c2ccc(-c3ccccc3)cc2)n(C)c1C |  | 7.88 | 35.2 |  | 12.3 | 32.5 | 10.2 | 8.26 | 10.9 | 6.84 |  |  |  |  |  |  |  |  |  | 
COc1cc(NS(=O)(=O)c2ccc(C)cc2)c2nccnc2c1 | > 100 | > 100 |  | 81.2 |  | > 100 | > 100 | > 100 | > 100 | 35.1 |  |  |  |  |  |  |  |  |  | 
O=C1C=C(Nc2ccccc2C(=O)CC(=O)C(=O)Nc2cccc([N+](=O)[O-])c2)c2ccccc2C1=O | 53.6 | 55.2 |  | 87.8 |  | > 100 | > 100 | > 100 | > 100 | > 100 |  |  |  |  |  |  |  |  |  | 
CCCC1(CC(=O)O)OCCc2c1[nH]c1ccccc21 (configuration not stated) | > 100 | > 100 |  | > 100 |  | > 100 | > 100 | > 100 | > 100 | > 100 |  |  |  |  |  |  |  |  |  | 
CCCCCCCCn1ccc2cc(NC(=O)Cn3cc(CN4CCCCCC4)nn3)ccc21 | 4.31 | 3.24 | 3.78 | 7.41 |  | 5.07 | 3.77 | 3.86 | 3.13 | 3.23 | 1.94 | 1.66 | 2.25 |  | 1.76 | 1.82 | 1.59 | 1.67 | 1.73 | 2.23
COC(=O)C(=O)CC(=O)CCn1[nH]c(=O)c(Cl)c(Cl)c1=O |  | > 100 |  |  |  | > 100 | > 100 | > 100 | > 100 | > 100 |  |  |  |  |  |  |  |  |  | 
COc1ccc2c(c1)C(=O)CCc1cc(OC)c(OC)c(OC)c1-2 | > 100 |  |  | > 100 | > 100 |  | 0.0617 |  | > 100 | > 100 | < 0.01 |  | < 0.01 | < 0.01 | < 0.01 |  | 0.818 | < 0.01 |  | < 0.01
[N-]=[N+]=NCCCn1c2c(c3ccc([N+](=O)[O-])cc3c1=O)C(=O)c1ccccc1-2 | > 100 |  |  |  | > 100 |  | > 100 | > 100 |  | > 100 | 6.04 |  |  | 38 | 9.25 | > 100 |  | > 100 |  | 
